Data published in the supplement of paper PMC10307832.

Tests used:
Experiment in all cases: relative viability (nuclei count vs DMSO), 5 days (fraction); higher = more cells survive
Erlotinib + Olaparib = compound: C#Cc1cccc(Nc2ncnc3cc(OCCOC)c(OCCOC)cc23)c1 [Erlotinib] + O=C(c1cc(Cc2n[nH]c(=O)c3ccccc23)ccc1F)N1CCN(C(=O)C2CC2)CC1 [Olaparib] (partner 8 µM)
Outline: (§1)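 Relative viability was taken as the ratio of nuclei in treated wells to nuclei in vehicle wells. Lung cancer cell lines in 1536-well plates received compounds by pin tool one day after seeding, either one drug alone or a fixed anchor-drug dose plus five library-drug doses (not always all listed) in √10 steps. Nuclei were counted on 4× images after 5 days of treatment, and values are medians of duplicate plates.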

AT9283 + Foretinib = compound: O=C(Nc1c[nH]nc1-c1nc2ccc(CN3CCOCC3)cc2[nH]1)NC1CC1 [AT9283] + COc1cc2c(Oc3ccc(NC(=O)C4(C(=O)Nc5ccc(F)cc5)CC4)cc3F)ccnc2cc1OCCCN1CCOCC1 [Foretinib] (partner 0.25 µM)
Outline: as §1

AT9283 + Tozasertib = compound: O=C(Nc1c[nH]nc1-c1nc2ccc(CN3CCOCC3)cc2[nH]1)NC1CC1 [AT9283] + Cc1cc(Nc2cc(N3CCN(C)CC3)nc(Sc3ccc(NC(=O)C4CC4)cc3)n2)n[nH]1 [Tozasertib] (partner 0.1 µM)
Outline: as §1

Erlotinib + Luminespib = compound: C#Cc1cccc(Nc2ncnc3cc(OCCOC)c(OCCOC)cc23)c1 [Erlotinib] + CCNC(=O)c1noc(-c2cc(C(C)C)c(O)cc2O)c1-c1ccc(CN2CCOCC2)cc1 [Luminespib] (partner 0.01 µM)
Outline: as §1

Erlotinib + OSI-027 = compound: C#Cc1cccc(Nc2ncnc3cc(OCCOC)c(OCCOC)cc23)c1 [Erlotinib] + COc1cccc2cc(-c3nc([C@H]4CC[C@H](C(=O)O)CC4)n4ncnc(N)c34)[nH]c12 [OSI-027] (partner 0.5 µM)
Outline: as §1

## NCI-H1395
Erlotinib + Olaparib; first compound 0.02 µM
  relative viability: 0.465
Erlotinib + Olaparib; first compound 0.2 µM
  relative viability: 0.43
Erlotinib + Olaparib; first compound 0.6325 µM
  relative viability: 0.426
Erlotinib + Olaparib; first compound 2 µM
  relative viability: 0.432
AT9283 + Foretinib; first compound 0.003 µM
  relative viability: 0.729
AT9283 + Foretinib; first compound 0.03 µM
  relative viability: 0.88
AT9283 + Foretinib; first compound 0.09487 µM
  relative viability: 0.465
AT9283 + Foretinib; first compound 0.3 µM
  relative viability: 0.397
AT9283 + Tozasertib; first compound 0.003 µM
  relative viability: 0.61
AT9283 + Tozasertib; first compound 0.03 µM
  relative viability: 0.553
AT9283 + Tozasertib; first compound 0.09487 µM
  relative viability: 0.399
AT9283 + Tozasertib; first compound 0.3 µM
  relative viability: 0.355
Erlotinib + Luminespib; first compound 0.02 µM
  relative viability: 0.919
Erlotinib + Luminespib; first compound 0.2 µM
  relative viability: 0.613
Erlotinib + Luminespib; first compound 0.6325 µM
  relative viability: 0.676
Erlotinib + Luminespib; first compound 2 µM
  relative viability: 0.671
Erlotinib + OSI-027; first compound 0.02 µM
  relative viability: 0.677
Erlotinib + OSI-027; first compound 0.2 µM
  relative viability: 0.712
Erlotinib + OSI-027; first compound 0.6325 µM
  relative viability: 0.615
Erlotinib + OSI-027; first compound 2 µM
  relative viability: 0.629

## LXF-289
Erlotinib + Olaparib; first compound 0.02 µM
  relative viability: 1.15
Erlotinib + Olaparib; first compound 0.2 µM
  relative viability: 1.12
Erlotinib + Olaparib; first compound 0.6325 µM
  relative viability: 1.12
Erlotinib + Olaparib; first compound 2 µM
  relative viability: 1.04
AT9283 + Foretinib; first compound 0.003 µM
  relative viability: 1
AT9283 + Foretinib; first compound 0.03 µM
  relative viability: 0.571
AT9283 + Foretinib; first compound 0.09487 µM
  relative viability: 0.225
AT9283 + Foretinib; first compound 0.3 µM
  relative viability: 0.109
AT9283 + Tozasertib; first compound 0.003 µM
  relative viability: 0.2
AT9283 + Tozasertib; first compound 0.03 µM
  relative viability: 0.127
AT9283 + Tozasertib; first compound 0.09487 µM
  relative viability: 0.0989
AT9283 + Tozasertib; first compound 0.3 µM
  relative viability: 0.0888
Erlotinib + Luminespib; first compound 0.02 µM
  relative viability: 0.813
Erlotinib + Luminespib; first compound 0.2 µM
  relative viability: 0.622
Erlotinib + Luminespib; first compound 0.6325 µM
  relative viability: 0.707
Erlotinib + Luminespib; first compound 2 µM
  relative viability: 0.634
Erlotinib + OSI-027; first compound 0.02 µM
  relative viability: 0.79
Erlotinib + OSI-027; first compound 0.2 µM
  relative viability: 0.766
Erlotinib + OSI-027; first compound 0.6325 µM
  relative viability: 0.721
Erlotinib + OSI-027; first compound 2 µM
  relative viability: 0.551

## COR-L23
Erlotinib + Olaparib; first compound 0.02 µM
  relative viability: 0.38
Erlotinib + Olaparib; first compound 0.2 µM
  relative viability: 0.309
Erlotinib + Olaparib; first compound 0.6325 µM
  relative viability: 0.442
Erlotinib + Olaparib; first compound 2 µM
  relative viability: 0.308
AT9283 + Foretinib; first compound 0.003 µM
  relative viability: 1.01
AT9283 + Foretinib; first compound 0.03 µM
  relative viability: 0.623
AT9283 + Foretinib; first compound 0.09487 µM
  relative viability: 0.216
AT9283 + Foretinib; first compound 0.3 µM
  relative viability: 0.182
AT9283 + Tozasertib; first compound 0.003 µM
  relative viability: 0.278
AT9283 + Tozasertib; first compound 0.03 µM
  relative viability: 0.135
AT9283 + Tozasertib; first compound 0.09487 µM
  relative viability: 0.112
AT9283 + Tozasertib; first compound 0.3 µM
  relative viability: 0.132
Erlotinib + Luminespib; first compound 0.02 µM
  relative viability: 0.686
Erlotinib + Luminespib; first compound 0.2 µM
  relative viability: 0.637
Erlotinib + Luminespib; first compound 0.6325 µM
  relative viability: 0.693
Erlotinib + Luminespib; first compound 2 µM
  relative viability: 0.588
Erlotinib + OSI-027; first compound 0.02 µM
  relative viability: 0.87
Erlotinib + OSI-027; first compound 0.2 µM
  relative viability: 0.879
Erlotinib + OSI-027; first compound 0.6325 µM
  relative viability: 0.721
Erlotinib + OSI-027; first compound 2 µM
  relative viability: 0.512

## NCI-H23
Erlotinib + Olaparib; first compound 0.02 µM
  relative viability: 0.388
Erlotinib + Olaparib; first compound 0.2 µM
  relative viability: 0.261
Erlotinib + Olaparib; first compound 0.6325 µM
  relative viability: 0.289
Erlotinib + Olaparib; first compound 2 µM
  relative viability: 0.294
AT9283 + Foretinib; first compound 0.003 µM
  relative viability: 0.985
AT9283 + Foretinib; first compound 0.03 µM
  relative viability: 0.717
AT9283 + Foretinib; first compound 0.09487 µM
  relative viability: 0.412
AT9283 + Foretinib; first compound 0.3 µM
  relative viability: 0.32
AT9283 + Tozasertib; first compound 0.003 µM
  relative viability: 0.413
AT9283 + Tozasertib; first compound 0.03 µM
  relative viability: 0.603
AT9283 + Tozasertib; first compound 0.09487 µM
  relative viability: 0.276
AT9283 + Tozasertib; first compound 0.3 µM
  relative viability: 0.285
Erlotinib + Luminespib; first compound 0.02 µM
  relative viability: 0.218
Erlotinib + Luminespib; first compound 0.6325 µM
  relative viability: 0.202
Erlotinib + Luminespib; first compound 2 µM
  relative viability: 0.217
Erlotinib + OSI-027; first compound 0.02 µM
  relative viability: 0.769
Erlotinib + OSI-027; first compound 0.2 µM
  relative viability: 0.519
Erlotinib + OSI-027; first compound 0.6325 µM
  relative viability: 0.509
Erlotinib + OSI-027; first compound 2 µM
  relative viability: 0.407

## NCI-H1975
Erlotinib + Olaparib; first compound 0.02 µM
  relative viability: 0.818
Erlotinib + Olaparib; first compound 0.2 µM
  relative viability: 0.712
Erlotinib + Olaparib; first compound 0.6325 µM
  relative viability: 0.888
Erlotinib + Olaparib; first compound 2 µM
  relative viability: 0.695
AT9283 + Foretinib; first compound 0.003 µM
  relative viability: 0.947
AT9283 + Foretinib; first compound 0.03 µM
  relative viability: 0.949
AT9283 + Foretinib; first compound 0.09487 µM
  relative viability: 0.82
AT9283 + Foretinib; first compound 0.3 µM
  relative viability: 0.326
AT9283 + Tozasertib; first compound 0.003 µM
  relative viability: 0.728
AT9283 + Tozasertib; first compound 0.03 µM
  relative viability: 0.664
AT9283 + Tozasertib; first compound 0.09487 µM
  relative viability: 0.58
AT9283 + Tozasertib; first compound 0.3 µM
  relative viability: 0.311
Erlotinib + Luminespib; first compound 0.02 µM
  relative viability: 0.222
Erlotinib + Luminespib; first compound 0.2 µM
  relative viability: 0.157
Erlotinib + Luminespib; first compound 0.6325 µM
  relative viability: 0.169
Erlotinib + Luminespib; first compound 2 µM
  relative viability: 0.306
Erlotinib + OSI-027; first compound 0.02 µM
  relative viability: 0.704
Erlotinib + OSI-027; first compound 0.2 µM
  relative viability: 0.676
Erlotinib + OSI-027; first compound 0.6325 µM
  relative viability: 0.49
Erlotinib + OSI-027; first compound 2 µM
  relative viability: 0.381

## NCI-H3122
Erlotinib + Olaparib; first compound 0.02 µM
  relative viability: 0.618
Erlotinib + Olaparib; first compound 0.2 µM
  relative viability: 0.652
Erlotinib + Olaparib; first compound 0.6325 µM
  relative viability: 0.631
Erlotinib + Olaparib; first compound 2 µM
  relative viability: 0.618
AT9283 + Foretinib; first compound 0.003 µM
  relative viability: 0.803
AT9283 + Foretinib; first compound 0.03 µM
  relative viability: 0.852
AT9283 + Foretinib; first compound 0.09487 µM
  relative viability: 0.284
AT9283 + Foretinib; first compound 0.3 µM
  relative viability: 0.0779
AT9283 + Tozasertib; first compound 0.003 µM
  relative viability: 0.338
AT9283 + Tozasertib; first compound 0.03 µM
  relative viability: 0.348
AT9283 + Tozasertib; first compound 0.09487 µM
  relative viability: 0.319
AT9283 + Tozasertib; first compound 0.3 µM
  relative viability: 0.113
Erlotinib + Luminespib; first compound 0.02 µM
  relative viability: 0.0866
Erlotinib + Luminespib; first compound 0.2 µM
  relative viability: 0.089
Erlotinib + Luminespib; first compound 0.6325 µM
  relative viability: 0.0884
Erlotinib + Luminespib; first compound 2 µM
  relative viability: 0.107
Erlotinib + OSI-027; first compound 0.02 µM
  relative viability: 0.946
Erlotinib + OSI-027; first compound 0.2 µM
  relative viability: 1.06
Erlotinib + OSI-027; first compound 0.6325 µM
  relative viability: 0.998
Erlotinib + OSI-027; first compound 2 µM
  relative viability: 0.641

## NCI-H727
Erlotinib + Olaparib; first compound 0.02 µM
  relative viability: 0.696
Erlotinib + Olaparib; first compound 0.2 µM
  relative viability: 0.947
Erlotinib + Olaparib; first compound 0.6325 µM
  relative viability: 0.607
Erlotinib + Olaparib; first compound 2 µM
  relative viability: 0.721
AT9283 + Foretinib; first compound 0.003 µM
  relative viability: 0.689
AT9283 + Foretinib; first compound 0.03 µM
  relative viability: 0.649
AT9283 + Foretinib; first compound 0.09487 µM
  relative viability: 0.437
AT9283 + Foretinib; first compound 0.3 µM
  relative viability: 0.331
AT9283 + Tozasertib; first compound 0.003 µM
  relative viability: 0.589
AT9283 + Tozasertib; first compound 0.03 µM
  relative viability: 0.567
AT9283 + Tozasertib; first compound 0.09487 µM
  relative viability: 0.457
AT9283 + Tozasertib; first compound 0.3 µM
  relative viability: 0.444
Erlotinib + Luminespib; first compound 0.02 µM
  relative viability: 0.345
Erlotinib + Luminespib; first compound 0.6325 µM
  relative viability: 0.3
Erlotinib + Luminespib; first compound 2 µM
  relative viability: 0.191
Erlotinib + OSI-027; first compound 0.02 µM
  relative viability: 0.768
Erlotinib + OSI-027; first compound 0.2 µM
  relative viability: 0.584
Erlotinib + OSI-027; first compound 0.6325 µM
  relative viability: 0.461
Erlotinib + OSI-027; first compound 2 µM
  relative viability: 0.52
